What follows are compounds tested against T1, c-Met kinase (recombinant c-Met) (Homo sapiens, UniProt P08581) (assay: In vitro kinase assay I (homogeneous time-resolved fluorescence tyrosine kinase assay)).
T1 construct: 0.27 nM recombinant c-Met
Assay type: biochemical
Procedure, shortened: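 Biotinylated peptide (0.5 μM) phosphorylated by 0.2 nM recombinant c-Met with 50 μM MgATP, 60 min at room temperature, pH 7.4, 5% DMSO. EDTA stop; HTRF read with Eu-anti-phosphotyrosine antibody and streptavidin-APC. IC50 from 4-parameter logistic fit.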

T1 sequence (P08581 25-1390): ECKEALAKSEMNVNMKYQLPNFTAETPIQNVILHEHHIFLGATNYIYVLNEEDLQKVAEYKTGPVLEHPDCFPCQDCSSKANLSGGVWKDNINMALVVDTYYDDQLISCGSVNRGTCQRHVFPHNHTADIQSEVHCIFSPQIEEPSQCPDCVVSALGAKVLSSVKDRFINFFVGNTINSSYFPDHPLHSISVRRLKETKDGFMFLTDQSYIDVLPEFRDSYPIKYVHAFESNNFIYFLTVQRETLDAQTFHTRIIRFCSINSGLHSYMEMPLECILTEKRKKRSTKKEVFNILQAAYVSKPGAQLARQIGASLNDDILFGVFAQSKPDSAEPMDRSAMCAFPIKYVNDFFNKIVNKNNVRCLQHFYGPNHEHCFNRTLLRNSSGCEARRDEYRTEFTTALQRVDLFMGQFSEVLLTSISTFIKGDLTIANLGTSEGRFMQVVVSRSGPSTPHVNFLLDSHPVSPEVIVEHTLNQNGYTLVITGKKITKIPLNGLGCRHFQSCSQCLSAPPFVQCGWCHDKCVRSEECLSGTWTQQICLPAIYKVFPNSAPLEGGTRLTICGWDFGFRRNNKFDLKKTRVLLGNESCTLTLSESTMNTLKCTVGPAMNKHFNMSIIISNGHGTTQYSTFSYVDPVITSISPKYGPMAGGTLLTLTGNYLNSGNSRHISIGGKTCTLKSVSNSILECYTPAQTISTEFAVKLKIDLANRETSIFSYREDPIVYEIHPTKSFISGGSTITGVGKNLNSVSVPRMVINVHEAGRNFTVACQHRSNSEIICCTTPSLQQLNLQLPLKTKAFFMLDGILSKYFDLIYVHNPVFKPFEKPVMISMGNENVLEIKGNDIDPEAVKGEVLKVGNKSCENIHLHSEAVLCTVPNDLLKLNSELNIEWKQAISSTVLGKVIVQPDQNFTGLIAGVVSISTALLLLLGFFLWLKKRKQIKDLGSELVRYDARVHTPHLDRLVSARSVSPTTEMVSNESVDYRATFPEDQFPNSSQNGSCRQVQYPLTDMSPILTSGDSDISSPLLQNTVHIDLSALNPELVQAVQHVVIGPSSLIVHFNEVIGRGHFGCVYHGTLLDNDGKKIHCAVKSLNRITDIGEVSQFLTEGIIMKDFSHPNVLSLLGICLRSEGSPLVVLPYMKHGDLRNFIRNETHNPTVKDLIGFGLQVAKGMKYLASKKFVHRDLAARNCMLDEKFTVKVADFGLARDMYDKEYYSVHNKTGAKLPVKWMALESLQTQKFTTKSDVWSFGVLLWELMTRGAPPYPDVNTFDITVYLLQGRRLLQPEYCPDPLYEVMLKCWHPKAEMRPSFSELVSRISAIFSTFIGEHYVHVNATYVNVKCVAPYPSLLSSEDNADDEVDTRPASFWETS

IC50, < 100 nM:
CC(C)COC(=O)Nc1cccc(Cc2nn(-c3cn[nH]c3)ccc2=O)c1 [Example 197, isobutyl (3-{[4-oxo-1-(1H-pyrazol-4-yl)-1,4-dihydropyridazin-3-yl]methyl}phenyl)carbamate]
Cn1cc(-n2ccc(=O)c(Cc3cccc(-c4ncc(C5CCNCC5)cn4)c3)n2)cn1 [Example 200, 1-(1-Methyl-1H-pyrazol-4-yl)-3-{3-[5-(piperidin-4-yl)pyrimidin-2-yl]benzyl}pyridazin-4(1H)-one]
Cn1cc(-n2ccc(=O)c(Cc3cccc(-c4ncc(OCC(F)(F)CN5CCOCC5)cn4)c3)n2)cn1 [Example 259, 3-(3-{5-[2,2-Difluoro-3-(morpholin-4-yl)propoxy]pyrimidin-2-yl}benzyl)-1-(1-methyl-1H-pyrazol-4-yl)pyridazin-4(1H)-one]
CC(C)COc1cnc(-c2cccc(Cc3nn(-c4cnn(C)c4)ccc3=O)c2)nc1 [Example 261, 3-{3-[5-(2-methylpropoxy)pyrimidin-2-yl]benzyl}-1-(1-methyl-1H-pyrazol-4-yl)pyridazin-4(1H)-one]
Cn1cc(-n2ccc(=O)c(Cc3cccc(-c4ncc(OCC5CCOCC5)cn4)c3)n2)cn1 [Example 262, 1-(1-methyl-1H-pyrazol-4-yl)-3-{3-[5-(tetrahydro-2H-pyran-4-ylmethoxy)pyrimidin-2-yl]benzyl}pyridazin-4(1H)-one]
Cn1cc(-n2ccc(=O)c(Cc3cccc(-c4ncc(OCCN5CCOCC5)cn4)c3)n2)cn1 [Example 263, 1-(1-methyl-1H-pyrazol-4-yl)-3-{3-[5-(2-morpholin-4-ylethoxy)pyrimidin-2-yl]benzyl}pyridazin-4(1H)-one]
Cn1cc(-n2ccc(=O)c(Cc3cccc(-c4ncc(OCCO)cn4)c3)n2)cn1 [Example 264, 3-{3-[5-(2-hydroxyethoxy)pyrimidin-2-yl]benzyl}-1-(1-methyl-1H-pyrazol-4-yl)pyridazin-4(1H)-one]
Cn1cc(-n2ccc(=O)c(Cc3cccc(-c4ncc(OCCn5cccn5)cn4)c3)n2)cn1 [Example 265, 1-(1-methyl-1H-pyrazol-4-yl)-3-(3-{5-[2-(1H-pyrazol-1-yl)ethoxy]pyrimidin-2-yl}benzyl)pyridazin-4(1H)-one]
COC(C)(C)COc1cnc(-c2cccc(Cc3nn(-c4cnn(C)c4)ccc3=O)c2)nc1 [Example 267, 3-{3-[5-(2-methoxy-2-methylpropoxy)pyrimidin-2-yl]benzyl}-1-(1-methyl-1H-pyrazol-4-yl)pyridazin-4(1H)-one]
Cn1cc(-n2ccc(=O)c(Cc3cccc(-c4ncc(OCC5(CO)COC5)cn4)c3)n2)cn1 [Example 268, 3-[3-(5-{[3-(hydroxymethyl)oxetan-3-yl]methoxy}pyrimidin-2-yl)benzyl]-1-(1-methyl-1H-pyrazol-4-yl)pyridazin-4(1H)-one]
CC(C)Oc1cnc(-c2cccc(Cc3nn(-c4cnn(C)c4)ccc3=O)c2)nc1 [Example 270, 3-{3-[5-(1-methylethoxy)pyrimidin-2-yl]benzyl}-1-(1-methyl-1H-pyrazol-4-yl)pyridazin-4(1H)-one]
Cn1cc(-n2ccc(=O)c(Cc3cccc(-c4ncc(OCCn5cncn5)cn4)c3)n2)cn1 [Example 271, 1-(1-methyl-1H-pyrazol-4-yl)-3-(3-{5-[2-(1H-1,2,4-triazol-1-yl)ethoxy]pyrimidin-2-yl}benzyl)pyridazin-4(1H)-one]
Cn1cc(-n2ccc(=O)c(Cc3cccc(-c4ncc(OCC5(F)COC5)cn4)c3)n2)cn1 [Example 272, 3-(3-{5-[(3-fluorooxetan-3-yl)methoxy]pyrimidin-2-yl}benzyl)-1-(1-methyl-1H-pyrazol-4-yl)pyridazin-4(1H)-one]
Cn1cc(-n2ccc(=O)c(Cc3cccc(-c4ncc(OCCc5cnoc5)cn4)c3)n2)cn1 [Example 273, 3-{3-[5-(2-isoxazol-4-ylethoxy)pyrimidin-2-yl]benzyl}-1-(1-methyl-1H-pyrazol-4-yl)pyridazin-4(1H)-one]
Cn1cc(-n2ccc(=O)c(Cc3cccc(-c4ncc(OCC(F)F)cn4)c3)n2)cn1 [Example 274, 3-{3-[5-(2,2-difluoroethoxy)pyrimidin-2-yl]benzyl}-1-(1-methyl-1H-pyrazol-4-yl)pyridazin-4(1H)-one]
[2H]C([2H])([2H])C([2H])([2H])Oc1cnc(-c2cccc(Cc3nn(-c4cnn(C)c4)ccc3=O)c2)nc1 [Example 275, 3-[3-(5-ethoxypyrimidin-2-yl)benzyl]-1-(1-methyl-1H-pyrazol-4-yl)pyridazin-4(1H)-one-d5]
Cn1cc(-n2ccc(=O)c(Cc3cccc(-c4ncc(OC5CCOCC5)cn4)c3)n2)cn1 [Example 277, 1-(1-methyl-1H-pyrazol-4-yl)-3-{3-[5-(tetrahydro-2H-pyran-4-yloxy)pyrimidin-2-yl]benzyl}pyridazin-4(1H)-one]
Cn1cc(-n2ccc(=O)c(Cc3cccc(-c4ncc(OCC5CC5)cn4)c3)n2)cn1 [Example 278, 3-{3-[5-(cyclopropylmethoxy)pyrimidin-2-yl]benzyl}-1-(1-methyl-1H-pyrazol-4-yl)pyridazin-4(1H)-one]
CN(C)C(=O)COc1cnc(-c2cccc(Cc3nn(-c4cnn(C)c4)ccc3=O)c2)nc1 [Example 279, N,N-dimethyl-2-{[2-(3-{[1-(1-methyl-1H-pyrazol-4-yl)-4-oxo-1,4-dihydropyridazin-3-yl]methyl}phenyl)pyrimidin-5-yl]oxy}acetamide]
Cn1cc(-n2ccc(=O)c(Cc3cccc(-c4ncc(OCC(=O)N5CCOCC5)cn4)c3)n2)cn1 [Example 280, 1-(1-methyl-1H-pyrazol-4-yl)-3-{3-[5-(2-morpholin-4-yl-2-oxoethoxy)pyrimidin-2-yl]benzyl}pyridazin-4(1H)-one]
Cc1nc(COc2cnc(-c3cccc(Cc4nn(-c5cnn(C)c5)ccc4=O)c3)nc2)no1 [Example 281, 3-(3-{5-[(5-methyl-1,2,4-oxadiazol-3-yl)methoxy]pyrimidin-2-yl}benzyl)-1-(1-methyl-1H-pyrazol-4-yl)pridazin-4(1H)-one]
Cn1cc(-n2ccc(=O)c(Cc3cccc(-c4ncc(OCc5noc(C6CC6)n5)cn4)c3)n2)cn1 [Example 282, 3-(3-{5-[(5-cyclopropyl-1,2,4-oxadiazol-3-yl)methoxy]pyrimidin-2-yl}benzyl)-1-(1-methyl-1H-pyrazol-4-yl)pyridazin-4(1H)-one]
CC(C)c1nc(COc2cnc(-c3cccc(Cc4nn(-c5cnn(C)c5)ccc4=O)c3)nc2)no1 [Example 283, 3-[3-(5-{[5-(1-methylethyl)-1,2,4-oxadiazol-3-yl]methoxy}pyrimidin-2-yl)benzyl]-1-(1-methyl-1H-pyrazol-4-yl)pyridazin-4(1H)-one]
Cn1cc(-n2ccc(=O)c(Cc3cccc(-c4ncc(OCc5ccsn5)cn4)c3)n2)cn1 [Example 284, 3-{3-[5-(isothiazol-3-ylmethoxy)pyrimidin-2-yl]benzyl}-1-(1-methyl-1H-pyrazol-4-yl)pyridazin-4(1H)-one]
Cc1cc(COc2cnc(-c3cccc(Cc4nn(-c5cnn(C)c5)ccc4=O)c3)nc2)no1 [Example 285, 3-(3-{5-[(5-methylisoxazol-3-yl)methoxy]pyrimidin-2-yl}benzyl)-1-(1-methyl-1H-pyrazol-4-yl)pyridazin-4(1H)-one]
Cc1cc(COc2cnc(-c3cccc(Cc4nn(-c5cnn(C)c5)ccc4=O)c3)nc2)on1 [Example 286, 3-(3-{5-[(3-methylisoxazol-5-yl)methoxy]pyrimidin-2-yl}benzyl)-1-(1-methyl-1H-pyrazol-4-yl)pyridazin-4(1H)-one]
Cn1cc(-n2ccc(=O)c(Cc3cccc(-c4ncc(OCC(=O)OC(C)(C)C)cn4)c3)n2)cn1 [Example 287, tert-butyl [2-(3-{[1-(1-methyl-1H-pyrazol-4-yl)-4-oxo-1,4-dihydropyridazin-3-yl]methyl}phenyl)pyrimidin-5-yl]oxyacetate]
CCn1cc(-n2ccc(=O)c(Cc3cccc(-c4ncc(OCC5CCN(C(=O)OC(C)(C)C)CC5)cn4)c3)n2)cn1 [Example 288, tert-butyl 4-({[2-(3-{[1-(1-ethyl-1H-pyrazol-4-yl)-4-oxo-1,4-dihydropyridazin-3-yl]methyl}phenyl)pyrimidin-5-yl]oxy}methyl)piperidine-1-carboxylate]
CCn1cc(-n2ccc(=O)c(Cc3cccc(-c4ncc(OC5CN(C(=O)OC(C)(C)C)C5)cn4)c3)n2)cn1 [Example 289, tert-butyl 3-{[2-(3-{[1-(1-ethyl-1H-pyrazol-4-yl)-4-oxo-1,4-dihydropyridazin-3-yl]methyl}phenyl)pyrimidin-5-yl]oxy}azetidine-1-carboxylate]
CCn1cc(-n2ccc(=O)c(Cc3cccc(-c4ncc(OC(C)C)cn4)c3)n2)cn1 [Example 305, 1-(1-ethyl-1H-pyrazol-4-yl)-3-[3-(5-isopropoxypyrimidin-2-yl)benzyl]pyridazin-4(1H)-one]
CCn1cc(-n2ccc(=O)c(Cc3cccc(-c4ncc(OCC(F)F)cn4)c3)n2)cn1 [Example 306, 3-{3-[5-(2,2-difluoroethoxy)pyrimidin-2-yl]benzyl}-1-(1-ethyl-1H-pyrazol-4-yl)pyridazin-4(1H)-one]
CCn1cc(-n2ccc(=O)c(Cc3cccc(-c4ncc(OCCO)cn4)c3)n2)cn1 [Example 307, 1-(1-ethyl-1H-pyrazol-4-yl)-3-{3-[5-(2-hydroxyethoxy)pyrimidin-2-yl]benzyl}pyridazin-4(1H)-one]
CCn1cc(-n2ccc(=O)c(Cc3cccc(-c4ncc(OCCN5CCOCC5)cn4)c3)n2)cn1 [Example 312, 1-(1-ethyl-1H-pyrazol-4-yl)-3-{3-[5-(2-morpholin-4-ylethoxy)pyrimidin-2-yl]benzyl}pyridazin-4(1H)-one]

From patent US20120264735A1 (priority 2009, published 2012)
